Data reported in patent publication US11912701B2, “Protein kinase inhibitors for promoting liver regeneration or reducing or preventing hepatocyte death” (HEPAREGENIX GMBH, priority 2018, dated 2024).
pIC50: −log10 of the molar value.

Legend:
BRaf [1] = biological target: T1, BRaf (Homo sapiens, UniProt P15056); assay: KINOMEscan competition binding assay, BRaf; details: ratio PoC (off-target)/PoC (MKK4)
T1 construct: purchased ProQinase GmbH, Freiburg, Germany (33PanQinase Assay Service)
In short: (§1)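 DNA-tagged kinases expressed in HEK-293 cells compete between immobilized ligand on blocked beads and test compound at 100 nM; kinase retained on beads quantified by qPCR of the tag.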

JNK1 [2] = biological target: T2, JNK1 (Homo sapiens, UniProt P45983); assay: 33PanQinase enzyme assay, JNK1; format: biochemical; set-up: purchased ProQinase GmbH, Freiburg, Germany (33PanQinase Assay Service); details: ratio IC50(JNK1)/IC50(MKK4)
In short: (§2)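 33Pi incorporation, read by microplate scintillation counting, measured kinase activity after 60 min at 30 °C. Reactions were quenched with 2% (v/v) H3PO4 and washed with 0.9% NaCl. IC50 derived by least-squares fitting; single doses reported as % residual activity.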
Target sequence in this assay (P45983 whole entry): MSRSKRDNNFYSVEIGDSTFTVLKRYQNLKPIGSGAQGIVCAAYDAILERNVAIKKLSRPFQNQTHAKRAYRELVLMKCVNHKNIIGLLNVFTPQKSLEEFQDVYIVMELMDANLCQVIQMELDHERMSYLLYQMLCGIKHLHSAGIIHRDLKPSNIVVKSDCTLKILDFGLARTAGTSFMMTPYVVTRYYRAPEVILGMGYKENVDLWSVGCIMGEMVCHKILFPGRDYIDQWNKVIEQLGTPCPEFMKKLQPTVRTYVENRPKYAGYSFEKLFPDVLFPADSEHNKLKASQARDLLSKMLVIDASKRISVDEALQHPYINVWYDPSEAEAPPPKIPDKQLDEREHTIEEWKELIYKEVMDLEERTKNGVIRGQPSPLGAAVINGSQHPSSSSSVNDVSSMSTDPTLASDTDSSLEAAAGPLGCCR

MKK7 [3] = biological target: T3, MKK7 (Homo sapiens, UniProt O14733); assay: KINOMEscan competition binding assay, MKK7; set-up: M1/R419; host or cells: HEK-293; details: ratio PoC (off-target)/PoC (MKK4)
T3 sequence (O14733 1-419): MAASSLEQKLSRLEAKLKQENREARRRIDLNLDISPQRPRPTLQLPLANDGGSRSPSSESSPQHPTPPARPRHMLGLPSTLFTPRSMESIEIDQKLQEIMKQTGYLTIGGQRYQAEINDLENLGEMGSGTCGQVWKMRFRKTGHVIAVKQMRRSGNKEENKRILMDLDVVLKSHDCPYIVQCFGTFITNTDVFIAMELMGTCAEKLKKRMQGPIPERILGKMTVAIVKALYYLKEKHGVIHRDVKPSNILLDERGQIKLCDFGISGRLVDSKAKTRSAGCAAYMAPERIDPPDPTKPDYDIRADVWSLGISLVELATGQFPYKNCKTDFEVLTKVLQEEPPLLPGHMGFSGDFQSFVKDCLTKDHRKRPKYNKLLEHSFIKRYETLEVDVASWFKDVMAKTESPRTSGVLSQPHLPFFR
In short: as §1

BRaf [4] = biological target: T1, BRaf; assay: 33PanQinase enzyme assay, BRaf; format: biochemical; details: ratio IC50(BRaf)/IC50(MKK4)
In short: as §2

MKK4 [5] = biological target: T4, MKK4 (Homo sapiens, UniProt P45985); assay: 33PanQinase enzyme assay, MKK4; format: biochemical; details: assay 'IC50'; read-out: Potency MKK4 (IC50)
T4 construct: purchased ProQinase GmbH, Freiburg, Germany (33PanQinase Assay Service)
T4 sequence (P45985 1-399): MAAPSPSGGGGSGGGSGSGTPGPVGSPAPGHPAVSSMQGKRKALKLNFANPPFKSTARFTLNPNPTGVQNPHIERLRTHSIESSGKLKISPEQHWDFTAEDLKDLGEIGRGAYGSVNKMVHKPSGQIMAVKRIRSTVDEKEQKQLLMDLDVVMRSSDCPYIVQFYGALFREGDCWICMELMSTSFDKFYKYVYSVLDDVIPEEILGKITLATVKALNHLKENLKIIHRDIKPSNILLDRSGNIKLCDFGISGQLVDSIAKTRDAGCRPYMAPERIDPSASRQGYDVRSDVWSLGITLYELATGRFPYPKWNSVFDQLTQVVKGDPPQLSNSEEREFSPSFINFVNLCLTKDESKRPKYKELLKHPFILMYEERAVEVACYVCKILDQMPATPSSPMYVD
In short: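 Inhibition measured as 33Pi transfer to substrate after a 60-min, 30 °C reaction, acid-stopped and scintillation-counted.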

MKK4 [6] = biological target: T5, MKK4 (Homo sapiens, UniProt P45985); assay: KINOMEscan competition binding assay, MKK4; details: residual percent of control binding (PoC) at 100 nM
T5 construct: S84/D399; host or cells: HEK-293
T5 sequence (P45985 84-399): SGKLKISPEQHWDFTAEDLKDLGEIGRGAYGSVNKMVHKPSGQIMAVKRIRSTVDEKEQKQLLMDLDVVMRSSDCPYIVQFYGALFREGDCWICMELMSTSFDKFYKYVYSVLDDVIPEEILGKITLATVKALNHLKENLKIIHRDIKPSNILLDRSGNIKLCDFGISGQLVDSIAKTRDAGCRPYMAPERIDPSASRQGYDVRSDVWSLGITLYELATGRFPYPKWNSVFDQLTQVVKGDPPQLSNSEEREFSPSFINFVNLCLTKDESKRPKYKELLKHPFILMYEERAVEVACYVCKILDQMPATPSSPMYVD
In short: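 Tested at 100 nM and reported as percent of control binding (PoC). MKK4 was produced in HEK-293 cells and DNA-tagged. Displacement from ligand-coated, blocked beads was read by qPCR of eluted kinase.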

MKK7 [7] = biological target: T3, MKK7; assay: 33PanQinase enzyme assay, MKK7; format: biochemical; set-up: purchased ProQinase GmbH, Freiburg, Germany (33PanQinase Assay Service); details: ratio IC50(MKK7)/IC50(MKK4)
In short: as §2

JNK1 [8] = biological target: T2, JNK1; assay: KINOMEscan competition binding assay, JNK1; set-up: M1/Q384; host or cells: HEK-293; details: ratio PoC (off-target)/PoC (MKK4)
In short: as §1
Target sequence in this assay (P45983 1-384 isoform P45983-2): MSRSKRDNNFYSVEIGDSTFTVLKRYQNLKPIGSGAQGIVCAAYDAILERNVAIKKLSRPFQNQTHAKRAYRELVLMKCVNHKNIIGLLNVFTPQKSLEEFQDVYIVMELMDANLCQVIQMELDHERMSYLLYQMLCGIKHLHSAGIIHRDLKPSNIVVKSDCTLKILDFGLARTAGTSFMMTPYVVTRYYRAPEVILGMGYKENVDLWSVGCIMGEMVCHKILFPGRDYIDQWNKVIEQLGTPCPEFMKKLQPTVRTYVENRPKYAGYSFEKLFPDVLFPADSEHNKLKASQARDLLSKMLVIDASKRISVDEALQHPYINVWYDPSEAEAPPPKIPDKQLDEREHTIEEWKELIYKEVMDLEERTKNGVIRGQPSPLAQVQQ

T1 sequence (P15056 whole entry, species assumed): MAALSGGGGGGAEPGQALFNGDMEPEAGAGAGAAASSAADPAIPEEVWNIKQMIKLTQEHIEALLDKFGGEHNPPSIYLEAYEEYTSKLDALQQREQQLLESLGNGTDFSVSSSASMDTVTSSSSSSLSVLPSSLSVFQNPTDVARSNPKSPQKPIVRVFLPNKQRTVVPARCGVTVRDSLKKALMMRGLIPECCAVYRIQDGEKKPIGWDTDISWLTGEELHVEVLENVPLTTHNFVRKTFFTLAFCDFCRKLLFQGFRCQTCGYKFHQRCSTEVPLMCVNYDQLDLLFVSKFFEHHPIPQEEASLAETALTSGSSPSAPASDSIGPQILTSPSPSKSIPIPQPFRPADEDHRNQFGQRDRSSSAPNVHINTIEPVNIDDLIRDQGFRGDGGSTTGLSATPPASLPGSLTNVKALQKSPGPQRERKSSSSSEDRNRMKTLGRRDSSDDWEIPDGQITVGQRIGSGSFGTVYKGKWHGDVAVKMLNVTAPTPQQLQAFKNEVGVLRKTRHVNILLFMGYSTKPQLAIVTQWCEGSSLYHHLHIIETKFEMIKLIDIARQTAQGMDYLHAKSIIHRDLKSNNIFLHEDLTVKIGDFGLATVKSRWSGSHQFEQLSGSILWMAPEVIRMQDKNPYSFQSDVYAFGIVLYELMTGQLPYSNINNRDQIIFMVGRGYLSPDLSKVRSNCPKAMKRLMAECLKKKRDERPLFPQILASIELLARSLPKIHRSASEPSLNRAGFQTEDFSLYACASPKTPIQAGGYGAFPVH

| Structure (SMILES) | selectivity based on % Ctrl @100 nM vs. Braf (BRaf [1]) | Selectivity JNK1, IC50(off-target)/IC50(MKK4) (JNK1 [2]) | selectivity based on % Ctrl @100 nM vs. MKK7 (MKK7 [3]) | Selectivity Braf, IC50(off-target)/IC50(MKK4) (BRaf [4]) | pIC50 (MKK4 [5]) | MKK4 [% Ctrl @ 100 nM (MKK4 [6]) | Selectivity IVIKK7, IC50(off-target)/IC50(MKK4) (MKK7 [7]) | selectivity based on % Ctrl @100 nM vs. JNK1 (JNK1 [8]) |
| --- | --- | --- | --- | --- | --- | --- | --- | --- |
| CCCS(=O)(=O)Nc1ccc(F)c(C(=O)c2c[nH]c3ncc(-c4cccnn4)cc23)c1F [Example 48] | ◯ (3 ≥ Ratio) | ◯ (3 ≥ IC50(off-target)/IC50(MKK4)) | ++ (100 ≥ ratio > 10) | ◯ (3 ≥ IC50(off-target)/IC50(MKK4)) | 5.00 to 6.00 | + (3 ≤ PoC < 30) | ++ (100 ≥ IC50(off-target)/IC50(MKK4) > 10) | ++ (100 ≥ ratio > 10) |
| CCCS(=O)(=O)Nc1ccc(F)c(C(=O)c2c[nH]c3ncc(-c4ccc(N)nc4)cc23)c1F [Example 50] | ◯ (3 ≥ Ratio) | ◯ (3 ≥ IC50(off-target)/IC50(MKK4)) | +++ (Ratio > 100) | ◯ (3 ≥ IC50(off-target)/IC50(MKK4)) | 6.00 to 7.00 | +++ (PoC < 1) | +++ (IC50(off-target)/IC50(MKK4) > 100) | +++ (Ratio > 100) |
| CCCS(=O)(=O)Nc1ccc(F)c(C(=O)c2c[nH]c3ncc(-c4ccc(S(N)(=O)=O)nc4)cc23)c1F [Example 53] | + (10 ≥ ratio > 3) | ◯ (3 ≥ IC50(off-target)/IC50(MKK4)) | +++ (Ratio > 100) | ◯ (3 ≥ IC50(off-target)/IC50(MKK4)) | 6.00 to 7.00 | +++ (PoC < 1) | +++ (IC50(off-target)/IC50(MKK4) > 100) | +++ (Ratio > 100) |
| CCCS(=O)(=O)Nc1ccc(F)c(C(=O)c2c[nH]c3ncc(-c4ccc(S(C)(=O)=O)nc4)cc23)c1F [Example 77, N-(2,4-difluoro-3-(5-(6-(methylsulfonyl)pyridin-3-yl)-1H-pyrrolo[2,3-b]pyridine-3-carbonyl)phenyl)propane-1-sulfonamide] | ◯ (3 ≥ Ratio) | + (10 ≥ IC50(off-target)/IC50(MKK4) > 3) | +++ (Ratio > 100) | ◯ (3 ≥ IC50(off-target)/IC50(MKK4)) | 6.00 to 7.00 | +++ (PoC < 1) | +++ (IC50(off-target)/IC50(MKK4) > 100) | +++ (Ratio > 100) |
| CNc1ncc(-c2cnc3[nH]cc(C(=O)c4ccc(F)c(NS(=O)(=O)CCC(F)(F)F)c4F)c3c2)cn1 [Example 177, N-(2,6-difluoro-3-(5-(2-(methylamino)pyrimidin-5-yl)-1H-pyrrolo[2,3-b]pyridine-3-carbonyl)phenyl)-3,3,3-trifluoropropane-1-sulfonamide] | +++ (Ratio > 100) | +++ (IC50(off-target)/IC50(MKK4) > 100) | +++ (Ratio > 100) |  | > 7.00 | +++ (PoC < 1) | +++ (IC50(off-target)/IC50(MKK4) > 100) | +++ (Ratio > 100) |
| CN(C)c1ncc(-c2cnc3[nH]cc(C(=O)c4ccc(F)c(NS(=O)(=O)CCC(F)(F)F)c4F)c3c2)cn1 [Example 178, N-(3-(5-(2-(dimethylamino)pyrimidin-5-yl)-1H-pyrrolo[2,3-b]pyridine-3-carbonyl)-2,6-difluorophenyl)-3,3,3-trifluoropropane-1-sulfonamide] | +++ (Ratio > 100) | +++ (IC50(off-target)/IC50(MKK4) > 100) | +++ (Ratio > 100) |  | > 7.00 | +++ (PoC < 1) | +++ (IC50(off-target)/IC50(MKK4) > 100) | +++ (Ratio > 100) |
| CS(=O)(=O)Nc1c(F)ccc(C(=O)c2c[nH]c3ncc(-c4cccnc4)cc23)c1F [Example 228, N-(2,6-difluoro-3-(5-(pyridin-3-yl)-1H-pyrrolo[2,3-b]pyridine-3-carbonyl)phenyl)methanesulfonamide] | +++ (Ratio > 100) | ++ (100 ≥ IC50(off-target)/IC50(MKK4) > 10) | +++ (Ratio > 100) |  | 6.00 to 7.00 | +++ (PoC < 1) | ++ (100 ≥ IC50(off-target)/IC50(MKK4) > 10) | +++ (Ratio > 100) |
| CS(=O)(=O)Nc1c(F)ccc(C(=O)c2c[nH]c3ncc(-c4ccncc4)cc23)c1F [Example 234, N-(2,6-difluoro-3-(5-(pyridin-4-yl)-1H-pyrrolo[2,3-b]pyridine-3-carbonyl)phenyl)methanesulfonamide] | +++ (Ratio > 100) | +++ (IC50(off-target)/IC50(MKK4) > 100) | +++ (Ratio > 100) |  | > 7.00 | +++ (PoC < 1) | +++ (IC50(off-target)/IC50(MKK4) > 100) | +++ (Ratio > 100) |
| CCCS(=O)(=O)Nc1ccc(F)c(C(=O)c2c[nH]c3ncc(C4CCNCC4)cc23)c1F [Example 241, N-(2,4-difluoro-3-(5-(piperidin-4-yl)-1-pyrrolo[2,3-b]pyridine-3-carbonyl)phenyl)propane-1-sulfonamide] | ◯ (3 ≥ Ratio) | ◯ (3 ≥ IC50(off-target)/IC50(MKK4)) | + (10 ≥ ratio > 3) |  | 5.00 to 6.00 | + (3 ≤ PoC < 30) | + (10 ≥ IC50(off-target)/IC50(MKK4) > 3) | + (10 ≥ ratio > 3) |
| CCCS(=O)(=O)Nc1ccc(F)c(C(=O)c2c[nH]c3ncc(C4=CCNCC4)cc23)c1F [Example 242] | ◯ (3 ≥ Ratio) | ◯ (3 ≥ IC50(off-target)/IC50(MKK4)) | + (10 ≥ ratio > 3) |  | < 5.00 | + (3 ≤ PoC < 30) | ++ (100 ≥ IC50(off-target)/IC50(MKK4) > 10) | + (10 ≥ ratio > 3) |
